Structures can show the parent of a compound that is named as a salt. Where two headings read alike, the source gives them in different places.
How the values were obtained:
[1] = molecular target: T1, HO-2 (rat brain) (Rattus norvegicus, UniProt P23711); assay: HO enzymatic activity in rat brain microsomal fraction (CO formed from methemalbumin, gas chromatography); assay type: biochemical
T1 construct: brain microsomes were used as a source of HO-2; from tissue; host or cells: brain microsomal fraction of adult male Sprague-Dawley rats
T1 sequence (P23711 1-315): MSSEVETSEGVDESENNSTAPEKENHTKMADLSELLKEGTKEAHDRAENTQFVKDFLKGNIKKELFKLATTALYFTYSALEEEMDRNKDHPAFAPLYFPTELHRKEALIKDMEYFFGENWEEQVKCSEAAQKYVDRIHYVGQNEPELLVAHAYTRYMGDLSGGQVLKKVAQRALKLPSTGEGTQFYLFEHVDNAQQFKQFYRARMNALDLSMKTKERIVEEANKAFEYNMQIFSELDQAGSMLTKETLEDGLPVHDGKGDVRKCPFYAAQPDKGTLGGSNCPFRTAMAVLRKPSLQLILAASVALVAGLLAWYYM
Description: (§1) Incubations for HO activity analysis were done under conditions for which the rate of CO formation (pmol CO×min^−1×mg protein^−1) was linear with respect to time and microsomal protein concentration. Briefly, reaction mixtures (150 μL) consisting of 100 mM phosphate buffer (pH 7.4), 50 μM methemalbumin, and 1 mg/mL protein were pre-incubated with the inhibitors at final concentrations ranging from 0.1-100 μM for 10 minutes at 37° C. Reactions were initiated by adding NADPH at a final concentration of 1 mM and incubations were performed for an additional 15 minutes at 37° C.
(§2) Incubations for HO activity analysis were done under conditions for which the rate of CO formation (pmol CO/mg protein/minute) was linear with respect to time and microsomal protein concentration. Briefly, reaction mixtures (150 μL) consisting of 100 mM phosphate buffer (pH 7.4), 50 μM methemalbumin and 1 mg/mL protein were pre-incubated with the vehicle (ethanol or water in which the inhibitors were dissolved), or inhibitors at final concentrations ranging from 0.1-1000 μM for 10 minutes at 37° C. Reactions were initiated by adding β-NADPH at a final concentration of 1 mM and incubations were carried out for an additional 15 minutes at 37° C. Reactions were stopped by instantly freezing the reaction mixture on pulverized dry ice and CO formation was measured by gas chromatography using a TA 3000R Process Gas Analyzer (Trace Analytical/Ametek, Newark, Del., USA).
(§3) The values on the abscissa represent the decimal logarithm of the inhibitor's concentration (in μM), whereas the values of the activity on the ordinate are expressed as a percentage of the control experiments without inhibitor.
(§4) The IC50 values for the replicate experiments were employed to generate the reported standard deviation value.

[2] = molecular target: T2, HO-1 (rat spleen) (Rattus norvegicus, UniProt P06762); assay: HO enzymatic activity in rat spleen microsomal fraction (CO formed from methemalbumin, gas chromatography); assay type: biochemical; conditions: rat spleen microsomes, average ± standard deviation of replicate experiments; for IC50: read-out: IC50 HO-1 (rat spleen)/μM
T2 construct: Spleen microsomes were used as a source of HO-1; from tissue; host or cells: spleen microsomal fraction of adult male Sprague-Dawley rats
T2 sequence (P06762 1-289): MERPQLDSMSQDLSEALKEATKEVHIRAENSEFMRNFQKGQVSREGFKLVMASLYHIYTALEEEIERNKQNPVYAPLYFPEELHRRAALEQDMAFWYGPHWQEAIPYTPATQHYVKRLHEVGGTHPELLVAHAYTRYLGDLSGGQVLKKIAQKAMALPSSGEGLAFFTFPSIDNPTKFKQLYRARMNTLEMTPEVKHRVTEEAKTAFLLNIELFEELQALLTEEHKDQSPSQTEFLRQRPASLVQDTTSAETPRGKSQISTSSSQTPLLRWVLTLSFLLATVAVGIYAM
Description: as §1, §2, §3, §4

[3] = rat brain microsomes, average ± standard deviation of replicate experiments, read-out: IC50 HO-2 (rat brain)/μM

| SMILES | IC50 [1, 3] | IC50 [2] | IC50 HO-2 (rat brain)/μM ([1]; rat brain microsomes, average ± standard deviation of replicate experiments) | IC50 HO-1 (rat spleen)/μM [2] | IC50 [1] |
| --- | --- | --- | --- | --- | --- |
| COc1ccc(SC[C@@H]2CO[C@@](CCc3ccc(Cl)cc3)(Cn3ccnc3)O2)cc1 [(2R,4S)-2-[2-(4-chlorophenyl)ethyl]-2-[(1H-imidazol-1-yl)methyl]-4-[{(4-methoxyphenyl)thio}methyl]-1,3-dioxolane hydrochloride] | 2.5 ± 0.4 µM | 0.7 ± 0.3 µM | – | – | – |
| OC[C@@H]1CO[C@@](CCc2ccc(Cl)cc2)(Cn2ccnc2)O1 [(2R,4R)-2-[2-(4-chlorophenyl)ethyl]-2-[(1H-imidazol-1-yl)methyl]-4-(hydroxymethyl)-1,3-dioxolane hydrochloride] | > 100 µM | 12 ± 2 µM | – | – | – |
| c1cn(C2C3CC4CC(C3)CC2C4)cn1 (centres unmarked) | > 100 µM | > 100 µM | – | – | – |
| O=C(Cn1cncn1)c1cc(Cl)ccc1Cl [1-(2,5-Dichloro-phenyl)-2-[1,2,4]triazol-1-yl-ethanone] | > 100 µM | 18.4 ± 0.5 µM | – | – | – |
| Clc1ccc(CCC2(Cn3ccnc3)OCCO2)cc1 [2-[2-(4-chlorophenyl)ethyl]-2-[(1H-imidazol-1-yl)methyl]-1,3-dioxolane hydrochloride] | > 100 µM | 4 ± 2 µM | – | – | – |
| C[C@@H]1CO[C@@](CCc2ccc(Cl)cc2)(Cn2ccnc2)O1 [(2R,4R)-2-[2-(4-chlorophenyl)ethyl]-2-[(1H-imidazol-1-yl)methyl]-4-methyl-1,3-dioxolane hydrochloride] | 305 ± 25 µM | 0.8 ± 0.2 µM | – | – | – |
| C[C@H]1CO[C@@](CCc2ccc(Cl)cc2)(Cn2ccnc2)O1 [(2R,4S)-2-[2-(4-chlorophenyl)ethyl]-2-[(1H-imidazol-1-yl)methyl]-4-methyl-1,3-dioxolane hydrochloride] | – | 2.6 ± 0.4 µM | – | – | > 100 µM |
| O=C(Cn1ccnc1)c1ccc(Cl)cc1Cl [1-(2,4-dichloro-phenyl)-2-imidazol-1-yl-ethanone hydrochloride] | 15 ± 1 µM | 2.2 ± 0.5 µM | – | – | – |
| O=[N+]([O-])c1ccc(SC[C@@H]2CO[C@@](CCc3ccc(Cl)cc3)(Cn3ccnc3)O2)cc1 [(2R,4S)-2-[2-(4-chlorophenyl)ethyl]-2-[(1H-imidazol-1-yl)methyl]-4-[{(4-nitrophenyl)thio}meth-yl]-1,3-dioxolane hydrochloride] | 19 ± 2 µM | 6 ± 2 µM | – | – | – |
| O=C(CCc1ccccc1)Cn1cnc(Cl)c1Cl [1-(4,5-Dichloro-imidazol-1-yl)-4-phenyl-butan-2-one hydrochloride] | > 100 µM | > 100 µM | – | – | – |
| c1ccc(CNCCCn2ccnc2)cc1 | > 100 µM | > 100 µM | – | – | – |
| O=C(Cn1ccnc1)c1ccc2c(c1)OCCO2 [1-(2,3-dihydro-benzo[1,4]dioxin-6-yl)-2-imidazol-1-yl-ethanone hydrochloride] | > 100 µM | 73 ± 10 µM | – | – | – |
| C[C@H]1CO[C@](CCc2ccc(Cl)cc2)(Cn2ccnc2)O1 [(2S,4S)-2-[2-(4-chlorophenyl)ethyl]-2-[(1H-imidazol-1-yl)methyl]-4-methyl-1,3-dioxolane hydrochloride] | > 100 µM | 12 ± 4 µM | – | – | – |
| O=C(Cn1cncn1)c1ccc(Cl)cc1Cl [1-(2,4-dichloro-phenyl)-2-[1,2,4]triazol-1-yl-ethanone] | > 100 µM | 4.1 ± 0.9 µM | – | – | – |
| c1cn(CCCCCCCCCCn2ccnc2)cn1 [1,10-bis-(1H-imidazol-1-yl)decane dihydrochloride] | ~14 µM | ~10 µM | – | – | – |
| CC(=O)Cn1ccnc1 [1-(1H-Imidazol-1-yl)-propan-2-one] | – | – | Not Active | Not Active | – |
| Brc1ccc(CNCc2cccnc2)cc1 | > 100 µM | > 100 µM | – | – | – |

Further lines, with some results ahead:

| IC50 [1, 3] | IC50 [2] | IC50 HO-2 (rat brain)/μM ([1]; rat brain microsomes, average ± standard deviation of replicate experiments) | IC50 HO-1 (rat spleen)/μM [2] | SMILES | IC50 [1] |
| --- | --- | --- | --- | --- | --- |
| 4.6 ± 0.5 µM | 4 ± 1 µM | – | – | c1ccc(OCCCCn2ccnc2)cc1 [1-(4-phenoxy-butyl)-1H-imidazole hydrochloride] | – |
| > 100 µM | > 100 µM | – | – | c1ccc(CCC2(Cn3nccn3)OCCO2)cc1 [2-(2-Phenethyl-[1,3]dioxolan-2-ylmethyl)-2H-[1,2,3]triazole] | – |
| 15 ± 4 µM | 9 ± 3 µM | – | – | Clc1ccc(CC[C@@]2(Cn3ccnc3)OCC(COc3ccc(I)cc3)O2)cc1 (stereo in doubt) [(2R,4S)-1-[2-[2-(4-chloro-phenyl)-ethyl]-4-(4-iodo-phenoxymethyl)-[1,3]dioxolan-2-ylmethyl]-1H-imidazole hydrochloride] | – |
| 34 ± 12 µM | 1.03 ± 0.07 µM | – | – | Clc1ccc(CC[C@@]2(Cn3ccnc3)OC[C@@H](CSc3ccccc3)O2)cc1 [(2R,4S)-2-[2-(4-chlorophenyl)ethyl]-2-[(1H-imidazol-1-yl)methyl]-4-[(phenylthio)methyl]-1,3-dioxolane hydrochloride] | – |
| 1.4 ± 0.1 µM | 0.25 ± 0.01 µM | – | – | O=C(CCc1ccc(C(F)(F)F)cc1)Cn1ccnc1 [4-(4-(Trifluoromethyl)phenyl)-1-(1H-imidazol-1-yl)-2-butanone hydrochloride] | – |
| 19 ± 7 µM | 1.33 ± 0.03 µM | – | – | COc1ccc(OCC2CO[C@@](CCc3ccc(Cl)cc3)(Cn3ccnc3)O2)cc1 (stereo in doubt) [(2R,4S)-1-[2-[2-(4-chloro-phenyl)-ethyl]-4-(4-methoxy-phenoxymethyl)-[1,3]dioxolan-2-ylmethyl]-1H-imidazole hydrochloride] | – |
| 0.9 ± 0.2 µM | 0.163 ± 0.009 µM | – | – | CC(C)c1ccc(CCC(=O)Cn2ccnc2)cc1 [1-Imidazol-1-yl-4-(4-isopropyl-phenyl)-butan-2-one hydrochloride] | – |
| > 10 µM | 4 ± 1 µM | – | – | c1ccc(CSCCn2ccnc2)cc1 [1-(2-benzylsulfanyl-ethyl)-1H-imidazole] | – |
| > 100 µM | 3.58 ± 0.08 µM | – | – | c1ccc2cc(C3(Cn4cncn4)OCCO3)ccc2c1 [1-(2-naphthalen-2-yl-[1,3]dioxolan-2-ylmethyl)-1H-[1,2,4]triazole] | – |
| 58 ± 10 µM | 6.6 ± 0.2 µM | – | – | O=C(Cn1ccnc1)c1cc(Cl)ccc1Cl [1-(2,5-dichloro-phenyl)-2-imidazol-1-yl-ethanone hydrochloride] | – |
| > 43 µM | 2 ± 1 µM | – | – | C[C@@H]1CO[C@@](CCc2ccccc2)(Cn2ccnc2)O1 [(2R,4R)-2-[2-(4-phenyl)ethyl]-2-[(1H-imidazol-1-yl)methyl]-4-methyl-1,3-dioxolane hydrochloride] | – |
| > 100 µM | > 100 µM | – | – | O=C(CCc1ccc(O)cc1)Cn1ccnc1 [4-(4-Hydroxyphenyl)-1-(1H-imidazol-1-yl)butan-2-one hydrochloride] | – |
| > 100 µM | 115 µM | – | – | COC(=O)Nc1nc2ccc([S+]([O-])c3ccccc3)cc2[nH]1 (centres unmarked) [(5-benzenesulfinyl-1H-benzoimidazol-2-yl)-carbamic acid methyl ester] | – |
| 37 ± 9 µM | 4.6 ± 0.1 µM | – | – | O=C(Cn1ccnc1)c1ccc2c(c1)CCC2 [2-imidazol-1-yl-1-indan-5-yl-ethanone hydrochloride] | – |
| > 100 µM | > 100 µM | – | – | CSc1nnn(CC(=O)CCc2ccccc2)n1 [1-(5-Methylsulfanyl-tetrazol-2-yl)-4-phenyl-butan-2-one] | – |
| 3.7 ± 0.1 µM | 0.76 ± 0.01 µM | – | – | Cc1ccc(CCC(=O)Cn2ccnc2)cc1 [1-Imidazol-1-yl-4-(4-methylphenyl)butan-2-one hydrochloride] | – |
| > 100 µM | > 100 µM | – | – | CSc1ncn(CC(=O)CCc2ccccc2)n1 [1-(3-Methylsulfanyl-[1,2,4]triazol-1-yl)-4-phenyl-butan-2-one] | – |
| 3.3 ± 0.9 µM | 1.73 ± 0.01 µM | – | – | COCC1CO[C@@](CCc2ccc(Cl)cc2)(Cn2ccnc2)O1 (stereo in doubt) [(2R,4S)-1-{2-[2-(4-chloro-phenyl)-ethyl]-4-methoxymethyl-[1,3]dioxolan-2-ylmethyl}-1H-imidazole hydrochloride] | – |
| > 100 µM | > 100 µM | – | – | CS(=O)(=O)c1nnnn1CC(=O)CCc1ccccc1 [1-(5-Methanesulfonyl-tetrazol-1-yl)-4-phenyl-butan-2-one] | – |
| 206 ± 96 µM | 42 ± 13 µM | – | – | c1ccc(OCCCn2ccnc2)cc1 [1-(3-phenoxy-propyl)-1H-imidazole hydrochloride] | – |

From US20140155445A1, “Compounds and Methods for Treating Cancer and Diseases of the Central Nervous System” (Osta Biotechnologies Inc., priority 2007, published 2014)
